Reference: patent US20160137639A1, “TRIAZOLE-ISOXAZOLE COMPOUND AND MEDICAL USE THEREOF” (JAPAN TOBACCO INC., priority 2012, published 2016)
Like-named read-outs stand apart in the source and are kept apart here.

Legend:
human RORγ = molecular target: T1, human RORγ (Homo sapiens, UniProt P51449); assay: Luciferase reporter gene assay of inhibitory effect against RORγ transcriptional activity (GAL4-hRORγ plasmid in CHO cells); assay type: cell-based
T1 construct: human, NM_005060.3 and from Ser253 to Lys518; expressed in transfected cells; host or cells: CHO cells (transient co-transfection with pG5-Luc reporter)
T1 sequence (P51449 253-518): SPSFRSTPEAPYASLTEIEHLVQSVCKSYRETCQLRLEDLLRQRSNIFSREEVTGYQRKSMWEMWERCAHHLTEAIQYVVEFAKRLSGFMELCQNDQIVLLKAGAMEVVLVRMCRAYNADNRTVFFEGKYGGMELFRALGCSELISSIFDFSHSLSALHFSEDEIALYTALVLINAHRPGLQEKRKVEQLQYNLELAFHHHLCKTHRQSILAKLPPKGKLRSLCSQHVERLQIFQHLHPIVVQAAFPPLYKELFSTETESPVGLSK

mouse RORγ = molecular target: T2, mouse RORγ (Mus musculus, UniProt P51450); assay: Luciferase reporter gene assay of inhibitory effect against RORγ transcriptional activity (GAL4-mRORγ plasmid in CHO cells); assay type: cell-based
T2 construct: mouse, NM_011281.2 and from Ile251 to Lys516; expressed in transfected cells; host or cells: CHO cells (transient co-transfection with pG5-Luc reporter)
T2 sequence (P51450 251-516): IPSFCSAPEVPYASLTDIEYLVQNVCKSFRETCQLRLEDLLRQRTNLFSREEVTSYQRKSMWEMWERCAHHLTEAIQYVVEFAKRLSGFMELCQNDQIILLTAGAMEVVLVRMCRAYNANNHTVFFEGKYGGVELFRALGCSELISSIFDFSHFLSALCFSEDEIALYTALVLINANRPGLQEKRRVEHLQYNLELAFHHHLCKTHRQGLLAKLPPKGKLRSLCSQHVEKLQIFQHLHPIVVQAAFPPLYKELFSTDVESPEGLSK
Summary of the method: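 CHO cells transiently co-transfected with GAL4-mouse RORγ LBD (Ile251–Lys516) and GAL4-dependent luciferase reporter; eight compound concentrations, 0.1% DMSO, 2 days at 37 °C. Luminescence as %-of-vehicle control; EC50 by curve fit, cytotoxic concentrations excluded.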

Row | Compound | EC50 (human RORγ; read-out: LUC EC50 (μM) hRORg) [µM] | EC50 (mouse RORγ; read-out: LUC EC50 (μM) mRORg) [µM] | EC50 (human RORγ; read-out: LUC EC50 hRORg) [µM] | EC50 (mouse RORγ; read-out: LUC EC50 mRORg) [µM]
1 | CC(=O)N1C[C@H](C(=O)Nc2ccc(C)cc2C)[C@@H](c2nnc(C(O)CCC(C)(C)C)n2C2CC2)C1 (single isomer, unassigned) [Example F-348] | > 3 | > 3 |  | 
2 | CC(=O)N1C[C@H](C(=O)Nc2ccc(C)cc2C)[C@@H](c2nnc(C(O)CCC(C)(C)C)n2C2CC2)C1 (single isomer, unassigned) [Example F-349] | > 3 | > 3 |  | 
3 | Cc1ccc(NC(=O)CCc2nnc(C3(O)CC(CC(C)C)C3)n2C2CC2)c(C)c1 (single isomer, unassigned) [Example F-429] | < 3 | < 3 |  | 
4 | Cc1ccc(NC(=O)CCc2nnc(C3(O)CC(CC(C)C)C3)n2C2CC2)c(C)c1 (single isomer, unassigned) [Example F-430] | < 3 | < 3 |  | 
5 | Cc1ccc(NC(=O)CCc2nnc(C3CC(COC(C)C)C3)n2C2CC2)c(C)c1 (single isomer, unassigned) [Example F-477] | < 3 | < 3 |  | 
6 | Cc1ccc(NC(=O)CCc2nnc(C3CC(COC(C)C)C3)n2C2CC2)c(C)c1 (single isomer, unassigned) [Example F-478] | > 3 | < 3 |  | 
7 | COC1(CC(C)C)CC(c2nnc([C@H]3CN(C(C)=O)C[C@@H]3C(=O)Nc3ccc(C)cc3C)n2C2CC2)C1 (single isomer, unassigned) [Example F-482] | < 3 | < 3 |  | 
8 | COC1(CC(C)C)CC(c2nnc([C@H]3CN(C(C)=O)C[C@@H]3C(=O)Nc3ccc(C)cc3C)n2C2CC2)C1 (single isomer, unassigned) [Example F-483] | < 3 | < 3 |  | 
9 | Cc1ccc(NC(=O)C(C)C(CCO)c2nnc([C@H]3C[C@@H](CC(C)C)C3)n2C2CC2)c(C)c1 (single isomer, unassigned) [Example F-490] | > 3 | > 3 |  | 
10 | Cc1ccc(NC(=O)C(C)C(CCO)c2nnc([C@H]3C[C@@H](CC(C)C)C3)n2C2CC2)c(C)c1 (single isomer, unassigned) [Example F-491] | > 3 | < 3 |  | 
11 | Cc1ccc(NC(=O)C(C)C(CCO)c2nnc([C@H]3C[C@@H](CC(C)C)C3)n2C2CC2)c(C)c1 (single isomer, unassigned) [Example F-492] | > 3 | > 3 |  | 
12 | Cc1ccc(NC(=O)C(C)C(CCO)c2nnc([C@H]3C[C@@H](CC(C)C)C3)n2C2CC2)c(C)c1 (single isomer, unassigned) [Example F-493] | < 3 | < 3 |  | 
13 | Cc1ccc(NC(=O)[C@H]2CC(CO)C[C@@H]2c2nnc([C@H]3C[C@@H](CC(C)C)C3)n2C2CC2)c(C)c1 (single isomer, unassigned) [Example F-512] |  |  | < 3 | < 3
14 | Cc1ccc(NC(=O)[C@H]2CC(N(C)C)C[C@@H]2c2nnc([C@H]3C[C@@H](CC(C)C)C3)n2C2CC2)c(C)c1 (single isomer, unassigned) [Example F-534] |  |  | < 3 | < 3
15 | Cc1ccc(NC(=O)[C@H]2CC(N(C)C(C)C)C[C@@H]2c2nnc([C@H]3C[C@@H](CC(C)C)C3)n2C2CC2)c(C)c1 (single isomer, unassigned) [Example F-539] |  |  | > 3 | < 3
16 | COC1C[C@@H](C(=O)Nc2ccc(C)cc2C)[C@H](c2nnc([C@H]3C[C@@H](CC(C)C)C3)n2C2CC2)C1 (single isomer, unassigned) [Example F-555] |  |  | > 3 | > 3
17 | COC1C[C@H](C(=O)Nc2ccc(C)cc2C)[C@@H](c2nnc([C@H]3C[C@@H](CC(C)C)C3)n2C2CC2)C1 (single isomer, unassigned) [Example F-556] |  |  | < 3 | < 3
18 | COC1C[C@@H](C(=O)Nc2ccc(C)cc2C)[C@H](c2nnc([C@H]3C[C@@H](CC(C)C)C3)n2C2CC2)C1 (single isomer, unassigned) [Example F-557] |  |  | > 3 | > 3

Row | Compound | EC50 (human RORγ; read-out: LUC EC50 (μM) hRORg) [µM] | EC50 (mouse RORγ; read-out: LUC EC50 (μM) mRORg) [µM] | EC50 (human RORγ; read-out: LUC EC50 hRORg) [µM] | EC50 (mouse RORγ; read-out: LUC EC50 mRORg) [µM]
19 | Cc1ccc(NC(=O)[C@H]2CC(C)(O)C[C@@H]2c2nnc([C@H]3C[C@@H](CC(C)C)C3)n2C2CC2)c(C)c1 (single isomer, unassigned) [Example F-562] |  |  | < 3 | < 3
20 | Cc1ccc(NC(=O)[C@@H]2CC(C)(O)C[C@H]2c2nnc([C@H]3C[C@@H](CC(C)C)C3)n2C2CC2)c(C)c1 (single isomer, unassigned) [Example F-563] |  |  | < 3 | < 3
21 | Cc1ccc(NC(=O)[C@@H]2CC(C)(O)C[C@H]2c2nnc([C@H]3C[C@@H](CC(C)C)C3)n2C2CC2)c(C)c1 (single isomer, unassigned) [Example F-564] |  |  | < 3 | < 3
22 | Cc1ccc(NC(=O)[C@H]2CC(C)(O)C[C@@H]2c2nnc([C@H]3C[C@@H](CC(C)C)C3)n2C2CC2)c(C)c1 (single isomer, unassigned) [Example F-565] |  |  | < 3 | < 3
23 | Cc1ccc(NC(=O)C[C@H](CC(O)C(F)(F)F)c2nnc([C@H]3C[C@@H](CC(C)C)C3)n2C2CC2)c(C)c1 (single isomer, unassigned) [Example F-621] |  |  | < 3 | < 3
24 | Cc1ccc(NC(=O)C[C@H](CC(O)C(F)(F)F)c2nnc([C@H]3C[C@@H](CC(C)C)C3)n2C2CC2)c(C)c1 (single isomer, unassigned) [Example F-622] |  |  | < 3 | < 3
25 | Cc1ccc(NC(=O)C[C@H](CCC(=O)O)c2noc3c2C(C)CCC3CCC(C)C)c(Cl)c1 (single isomer, unassigned) [Example F-690] |  |  | > 3 | < 3
26 | Cc1ccc(NC(=O)C[C@H](CCC(=O)O)c2noc3c2C(C)CCC3CCC(C)C)c(Cl)c1 (single isomer, unassigned) [Example F-693] |  |  | < 3 | < 3
27 | Cc1ccc(NC(=O)C[C@H](CCC(=O)O)c2noc3c2C(C)CCC3CCC(C)C)c(Cl)c1 (single isomer, unassigned) [Example F-694] |  |  | < 3 | < 3
28 | Cc1ccc(NC(=O)C[C@H](CCC(=O)O)c2noc3c2C(C)CCC3CCC(C)C)c(Cl)c1 (single isomer, unassigned) [Example F-695] |  |  | > 3 | < 3
29 | Cc1ccc(NC(=O)C[C@H](CCC(=O)O)c2noc3c2CCCC3CCC(C)C)c(Cl)c1 (single isomer, unassigned) [Example F-698] |  |  | < 3 | < 3
30 | Cc1ccc(NC(=O)C[C@H](CCC(=O)O)c2noc(-c3cc(CC(C)C)on3)c2C2CC2)c(Cl)c1 [Example E-01] | < 3 | < 3 |  | 
31 | Cc1ccc(NC(=O)C[C@H](CCC(=O)O)c2noc(-c3cc(CC(C)C)on3)c2C2CC2)c(F)c1 [Example E-03] | < 3 | < 3 |  | 
32 | Cc1ccc(NC(=O)C[C@H](CCC(=O)O)c2noc(-c3cc(CC(C)C)no3)c2C2CC2)c(Cl)c1 [Example E-04, (S)-5-(2-chloro-4-methyl-phenylcarbamoyl)-4-(4-cyclopropyl-3′-isobutyl-[5,5′]biisoxazolyl-3-yl)-pentanoic acid] | < 3 | < 3 |  | 
33 | Cc1ccc(NC(=O)C[C@H](CCC(=O)O)c2noc(-c3cc(CCC(C)C)on3)c2C2CC2)c(Cl)c1 [Example E-05] | < 3 | < 3 |  | 
34 | Cc1ccc(NC(=O)C[C@H](CCC(=O)O)c2noc(-c3cc(CC(C)(C)C)on3)c2C2CC2)c(Cl)c1 [Example E-06] | < 3 | < 3 |  | 
35 | Cc1ccc(NC(=O)C[C@H](CCC(=O)O)c2noc(-c3cc(CC(C)C)[nH]n3)c2C2CC2)c(F)c1 [Example E-07] | > 3 | > 3 |  | 
36 | Cc1ccc(NC(=O)C[C@H](CCC(=O)O)c2noc(-c3cc(CCC(C)C)on3)c2C2CC2)c(F)c1 [Example E-09] | < 3 | < 3 |  | 
